“And” between values parts separate entries of the source, which are not always exact repeats. Identical values can stand only once.
Key:
[1] = xn = mol fraction of the nth substance listed; conditions: 101.3 kPa, Liquid, Vibrating tube method
[2] = 101.3 kPa, Liquid, Vibrating tube method

CCCO [propan-1-ol] + CC(O)CO
[1], x2 = 0
Conditions	mass density [kg/m3]
293.15 K	803.527
298.15 K	799.528
303.15 K	795.493
308.15 K	791.426
313.15 K	787.32
318.15 K	783.164

CCCCCCCCCO [nonan-1-ol]
[2]
Conditions	mass density [kg/m3]
293.15 K	827.667
298.15 K	824.254
303.15 K	820.815
308.15 K	817.362
313.15 K	813.885
318.15 K	810.385

CC(O)CO (stereo unspecified) [1,2-propanediol] + CCCCCCCCCO
[1], x1 = 1
Conditions	mass density [kg/m3]
293.15 K	1036.17
298.15 K	1032.52
303.15 K	1028.83
308.15 K	1025.09
313.15 K	1021.31
318.15 K	1017.49

CC(O)CO (stereo unspecified) [1,2-propanediol]
[2]
Conditions	mass density
293.15 K	1036.21 kg/m3 [middle of 4 runs]
298.15 K	1032.55 kg/m3 [middle of 4 runs]
303.15 K	1028.84 kg/m3 [middle of 4 runs]
308.15 K	1025.09 kg/m3 and 1025.1 kg/m3 and 1025.05 kg/m3
313.15 K	1021.28 kg/m3 and 1021.31 kg/m3
318.15 K	1017.47 kg/m3 and 1017.49 kg/m3

CC(O)CO (stereo unspecified) [1,2-propanediol] + CO
mass density [kg/m3], [1]
Conditions	x1 = 0.1008	x1 = 0.1385	x1 = 0.2582	x1 = 0.3	x1 = 0.4851	x1 = 0.5476	x1 = 0.6991	x1 = 0.7595	x1 = 0.8991	x1 = 1
293.15 K	838.277	853.548	895.155	908.078	954.527	967.74	995.074	1004.49	1024	1036.17
298.15 K	833.79	849.127	890.917	903.893	950.534	963.799	991.242	1000.7	1020.29	1032.52
303.15 K	829.274	844.68	886.644	899.676	946.507	959.825	987.37	996.862	1016.54	1028.83
308.15 K	824.731	840.206	882.346	895.43	942.448	955.815	983.47	992.997	1012.75	1025.09
313.15 K	820.164	835.7	878.013	891.151	938.356	951.772	979.532	989.094	1008.92	1021.31
318.15 K	815.56	831.158	873.648	886.837	934.226	947.684	975.556	985.157	1005.05	1017.49

CC(O)CO (stereo unspecified) [1,2-propanediol] + CCCO
mass density [kg/m3], [1]
Conditions	x1 = 0.1001	x1 = 0.2	x1 = 0.3001	x1 = 0.3999	x1 = 0.4999	x1 = 0.6997	x1 = 0.7998	x1 = 0.9497	x1 = 1
293.15 K	827.101	850.504	873.567	897.361	920.615	967.056	990.126	1024.72	1036.13
298.15 K	823.072	846.479	869.634	893.372	916.676	963.215	986.331	1021.04	1032.48
303.15 K	819.008	842.415	865.603	889.385	912.697	959.329	982.502	1017.3	1028.78
308.15 K	814.909	838.312	861.519	885.326	908.683	955.407	978.642	1013.52	1025.05
313.15 K	810.77	834.174	857.399	881.264	904.631	951.451	974.743	1009.71	1021.28
318.15 K	806.589	829.994	853.237	877.138	900.544	947.456	970.809	1005.86	1017.47

CC(O)CO (stereo unspecified) [1,2-propanediol] + CCCCCCO
mass density [kg/m3], [1]
Conditions	x1 = 0.1014	x1 = 0.1998	x1 = 0.2999	x1 = 0.4003	x1 = 0.4939	x1 = 0.5996	x1 = 0.6965	x1 = 0.7989	x1 = 0.9005	x1 = 1
293.15 K	831.496	845.231	860.667	877.818	895.533	917.945	941.028	968.795	1000.46	1036.21
298.15 K	827.881	841.574	856.979	874.105	891.801	914.203	937.285	965.064	996.753	1032.55
303.15 K	824.235	837.887	853.262	870.363	888.041	910.432	933.51	961.302	993.003	1028.84
308.15 K	820.566	834.178	849.521	866.596	884.256	906.63	929.702	957.503	989.222	1025.09
313.15 K	816.869	830.44	845.751	862.8	880.441	902.801	925.868	953.677	985.406	1021.31
318.15 K	813.142	826.676	841.952	858.977	876.599	898.941	922.002	949.81	981.555	1017.49

CCCCCCO [hexan-1-ol] + CC(O)CO
[1], x2 = 0
Conditions	mass density [kg/m3]
293.15 K	818.749
298.15 K	815.188
303.15 K	811.6
308.15 K	807.984
313.15 K	804.339
318.15 K	800.657

CCCCCCCCO [octan-1-ol] + CC(O)CO
[1], x2 = 0
Conditions	mass density [kg/m3]
293.15 K	825.093
298.15 K	821.647
303.15 K	818.177
308.15 K	814.686
313.15 K	811.171
318.15 K	807.629

CCCCCCCCCO [nonan-1-ol] + CC(O)CO
mass density [kg/m3], [1]
Conditions	x2 = 0	x2 = 0.1056	x2 = 0.225	x2 = 0.3433	x2 = 0.3773	x2 = 0.5551	x2 = 0.6746	x2 = 0.7695	x2 = 0.7978	x2 = 0.899
293.15 K	827.667	836.639	848.601	862.671	867.271	895.783	920.803	945.697	953.952	989.338
298.15 K	824.254	833.182	845.095	859.126	863.71	892.163	917.143	942.013	950.266	985.641
303.15 K	820.815	829.698	841.567	855.554	860.127	888.513	913.452	938.296	946.543	981.914
308.15 K	817.362	826.204	838.022	851.964	856.523	884.841	909.736	934.554	942.791	978.153
313.15 K	813.885	822.685	834.458	848.353	852.901	881.148	906.002	930.783	939.015	974.358
318.15 K	810.385	819.146	830.872	844.72	849.257	877.428	902.236	926.985	935.207	970.53

CO [methanol] + CC(O)CO
[1], x2 = 0
Conditions	mass density [kg/m3]
293.15 K	791.494
298.15 K	786.794
303.15 K	782.071
308.15 K	777.326
313.15 K	772.55
318.15 K	767.744

CC(O)CO (stereo unspecified) [1,2-propanediol] + CCCCCCCCO
mass density [kg/m3], [1]
Conditions	x1 = 0.1028	x1 = 0.1938	x1 = 0.3029	x1 = 0.3929	x1 = 0.5181	x1 = 0.6002	x1 = 0.7012	x1 = 0.8016	x1 = 0.901	x1 = 1
293.15 K	834.904	844.743	858.314	871.118	892.06	908.213	931.472	959.327	993.344	1036.22
298.15 K	831.409	841.209	854.74	867.513	888.414	904.545	927.781	955.627	989.648	1032.56
303.15 K	827.891	837.652	851.144	863.884	884.743	900.85	924.062	951.891	985.914	1028.85
308.15 K	824.351	834.08	847.528	860.235	881.051	897.13	920.315	948.124	982.15	1025.1
313.15 K	820.793	830.481	843.885	856.562	877.332	893.39	916.543	944.333	978.349	1021.31
318.15 K	817.208	826.859	840.223	852.864	873.592	889.619	912.743	940.506	974.513	1017.49
